According to US20110065916A1, “METHOD OF MAKING IMIDAZOAZEPINONE COMPOUNDS” (priority 2007, published 2011):
pIC50: −log10 of the molar value.

Test system: human T-bet
Assay: HEKT-bet-luc assay (normalized HEKT-bet IC50)
Format: cell-based
Conditions: compound 24 hours, normalized to reference ER-819544
Method: HEKT-bet-luc assay: This assay measures a T-bet dependent reporter (luciferase) activity in engineered HEK cells that express a human T-bet and a T-box responsive element driving luciferase reporter. HEKT-bet cells were plated at 2×10^4/well in 96-well plate and compound was added into cell culture for 24 hours. Luciferase activity was measured by adding 50 μl of Steady-Glo reagent (Promega) and samples were read in Victor V reader (PerkinElmer). The activity of compound was determined by comparing compound treated samples to non-compound treated vehicle controls. The IC50 values were calculated utilizing a maximum value corresponding to the amount of luciferase in the absence of a test compound and a minimum value corresponding to a test compound value obtained at maximum inhibition.
Determination of Normalized HEKT-bet IC50 values: Compounds were assayed in microtiter plates. Each plate included a reference compound which was ER-819544. The un-normalized IC50 value for a particular compound was divided by the IC50 value determined for the reference compound in the same microtiter plate to provide a relative potency value. The relative potency value was then multiplied by the established potency of the reference compound to provide the normalized HEKT-bet IC50 value. […] The IC50 values provided herein were obtained using this normalization method.

[1] = Homo sapiens, HEK293, 24 h, Table 4, engineered HEK cells

Structure (SMILES) | pIC50 [1] | also measured
CCN1C(=O)N2Cc3cc(OC)cc(OC)c3[C@H](C)C=C2C12CCN(Cc1nc3ccccc3n1C)CC2 [ER-819927] | 6.68 | 
CCN1C(=O)N2Cc3cc(OC)cc(OC)c3[C@@H](C)C=C2C12CCN(Cc1cc(C)c(F)c(C)c1)CC2 [ER-819931] | 7.15 | 
CCN1C(=O)N2Cc3cc(OC)cc(OC)c3[C@@H](C)C=C2C12CCN(Cc1ccc(F)c(OC(F)(F)F)c1)CC2 [ER-819933] | 5.94 | 
CCN1C(=O)N2Cc3cc(OC)cc(OC)c3[C@@H](C)C=C2C12CCN(Cc1c(F)ccc(C)c1F)CC2 [ER-819934] | 7.00 | 
CCN1C(=O)N2Cc3cc(OC)cc(OC)c3[C@@H](C)C=C2C12CCN(Cc1cc(C)ccc1F)CC2 [ER-819935] | 6.89 | 
CCN1C(=O)N2Cc3cc(OC)cc(OC)c3[C@@H](C)C=C2C12CCN(Cc1ccc(F)c(OC)c1)CC2 [ER-819936] | 6.92 | 
CCN1C(=O)N2Cc3cc(OC)cc(OC)c3[C@H](C)C=C2C12CCN(Cc1cc(C)c(F)c(C)c1)CC2 [ER-819943] | < 5.00 | 
CCN1C(=O)N2Cc3cc(OC)cc(OC)c3[C@H](C)C=C2C12CCN(Cc1ccc(F)c(OC(F)(F)F)c1)CC2 [ER-819945] | < 5.00 | 
CCN1C(=O)N2Cc3cc(OC)cc(OC)c3[C@H](C)C=C2C12CCN(Cc1c(F)ccc(C)c1F)CC2 [ER-819946] | 5.53 | 
CCN1C(=O)N2Cc3cc(OC)cc(OC)c3[C@H](C)C=C2C12CCN(Cc1cc(C)ccc1F)CC2 [ER-819947] | 5.59 | 
CCN1C(=O)N2Cc3cc(OC)cc(OC)c3[C@H](C)C=C2C12CCN(Cc1ccc(F)c(OC)c1)CC2 [ER-819948] | < 5.00 | 
CCN1C(=O)N2Cc3cc(OC)cc(OC)c3[C@@H](C)C=C2C12CCN(Cc1cccc3nccnc13)CC2 [ER-819953-01] | 7.59 | 
CCN1C(=O)N2Cc3cc(OC)cc(OC)c3[C@@H](C)C=C2C12CCN(Cc1cccc3ncccc13)CC2 [ER-819954-01] | 7.33 | 
CCN1C(=O)N2Cc3cc(OC)cc(OC)c3[C@@H](C)C=C2C12CCN(Cc1cccc3cccnc13)CC2 [ER-819955-01] | 7.70 | 
CCN1C(=O)N2Cc3cc(OC)cc(OC)c3[C@@H](C)C=C2C12CCN(Cc1nccn1C)CC2 [ER-819957-01] |  | pIC50 (Table 4, engineered HEK cells): 7.26
CCN1C(=O)N2Cc3cc(OC)cc(OC)c3[C@@H](C)C=C2C12CCN(Cc1ccnn1C)CC2 [ER-819958-01] | 7.10 | 

Structure (SMILES) | pIC50 [1] | also measured
CCN1C(=O)N2Cc3cc(OC)cc(OC)c3[C@@H](C)C=C2C12CCN(Cc1ccn(C)c1)CC2 [ER-819961-01] | 7.02 | 
CCN1C(=O)N2Cc3cc(OC)cc(OC)c3[C@@H](C)C=C2C12CCN(Cc1nc3ccccc3[nH]1)CC2 [ER-819965-01] | 6.89 | 
CCN1C(=O)N2Cc3cc(OC)cc(OC)c3[C@@H](C)C=C2C12CCN(Cc1ccc3[nH]ccc3c1)CC2 [ER-819966-01] | 7.32 | 
CCN1C(=O)N2Cc3cc(OC)cc(OC)c3[C@@H](C)C=C2C12CCN(Cc1cn(C)nc1C)CC2 [ER-819971-01] | 7.47 | 
CCN1C(=O)N2Cc3cc(OC)cc(OC)c3[C@@H](C)C=C2C12CCN(Cc1cc(C)nn1C)CC2 [ER-819973-01] | 7.52 | 
CCN1C(=O)N2Cc3cc(OC)cc(OC)c3[C@@H](C)C=C2C12CCN(Cc1cnn(C)c1C)CC2 [ER-819976-01] | 7.64 | 
CCN1C(=O)N2Cc3cc(OC)cc(OC)c3[C@@H](C)C=C2C12CCN(Cc1cccn1-c1cccnc1)CC2 [ER-819979-01] | 6.92 | 
CCN1C(=O)N2Cc3cc(OC)cc(OC)c3[C@@H](C)C=C2C12CCN(Cc1nc3ccccc3o1)CC2 [ER-819981-01] | 6.70 | 
CCN1C(=O)N2Cc3cc(OC)cc(OC)c3[C@@H](C)C=C2C12CCN(Cc1nccc(-c3ccccc3)n1)CC2 [ER-819985-01] | 6.89 | 
CCN1C(=O)N2Cc3cc(OC)cc(OC)c3[C@@H](C)C=C2C12CCN(Cc1nc(OC)cc(OC)n1)CC2 [ER-820004-01] | 7.17 | 
CCN1C(=O)N2Cc3cc(OC)cc(OC)c3[C@@H](C)C=C2C12CCN(Cc1cccn1CCC#N)CC2 [ER-820008-00] | 6.62 | 
CCN1C(=O)N2Cc3cc(OC)cc(OC)c3[C@@H](C)C=C2C12CCN(Cc1nccn1OCc1ccccc1)CC2 [ER-820009-00] | 6.96 | 
CCN1C(=O)N2Cc3cc(OC)cc(OC)c3[C@@H](C)C=C2C12CCN(Cc1cccn1-c1cc(C)on1)CC2 [ER-820017-01] | 7.16 | 
CCN1C(=O)N2Cc3cc(OC)cc(OC)c3[C@@H](C)C=C2C12CCN(Cc1cccn1-c1cnccn1)CC2 [ER-820020-02] | 6.74 | 
CCN1C(=O)N2Cc3cc(OC)cc(OC)c3[C@@H](C)C=C2C12CCN(Cc1cc(OC)c(F)c(OC)c1)CC2 [ER-824214-00] | 7.54 | 
COc1cc2c(c(OC)c1)C(C)(C)C=C1N(C2)C(=O)NC12CCN(Cc1ccccc1)CC2 [compound 819667] |  | pIC50 (Homo sapiens, HEK293, 24 h, Table 2, engineered HEK cells): 6.60
